Test results published in patent US20200338112A1, “METHODS AND MATERIALS FOR TREATING CANCER” (Mayo Foundation for Medical Education and Research, priority 2018, published 2020).
Entries after “also recorded” stand apart in the source; their conditions may differ. Where a SMILES comes first, the peptide text is derived from it. The star is where a group is joined. Cbz = O=C(OCc1ccccc1)*

Tests used:
[1] = system: NBS1 protein level in MDA-MB-231 cells; experiment: Western blot of NBS1 protein level after MG132 treatment; format: cell-based; details: MG132 10 μM for six hours; PD-L1 depleted MDA-MB-231 cells; FIG. 3c
Protocol: FIGS. 3a and 3b contain western blot analyses of BRCA1, NBS1, RAD50, MRE11, and PD-L1 in HCT116 and MDA-MB-231 cells, respectively, that were infected with lentiviral control shRNA or two different shRNAs targeting PD-L1. GAPDH was used as a loading control. FIG. 3c contains a western blot of NBS1 protein levels in MDA-MB-231 cells infected with lentivirus control shRNA or two different shRNAs targeting PD-L1 were treated with DMSO (control) or MG132 (10 μM) for six hours before proteins were harvested. GAPDH and p53 were used as loading and positive control, respectively. […] GAPDH was used for normalization. FIGS. 3e, 3f, and 3g assess HCT116 cells treated with the transcription inhibitor actinomycin D (5 μg/mL). NBS1 mRNA levels were quantified using RT-PCR. Knockdown of PD-L1 in HCT116 decreased the half-life of NBS1 and BRCA1 mRNA, while restoring PD-L1 in the knockdown cells rescued the phenotype (±s.e.m., n=3). GAPDH was used for normalization. […] The change of NBS1 and BRCA1 mRNA level was not due to transcription, since the transcription of BRCA1 was not changed, while the transcription of NBS1 was even increased after PD-L1 was knocked down (±s.e.m., n=3). GAPDH was used for normalization. FIG. 3i contains representative pictures of the subcellular localization of PD-L1. The immunofluorescence was performed in HCT116 cells. […]

[2] = system: cells; experiment: Colony formation of cells pretreated with durvalumab, then IR; format: cell-based; details: durvalumab 10 μg/mL, 24 hours before IR, FIG. 1f
Protocol: FIG. 1a contains colony formation experiments of HCT116 cells under either ionizing radiation (IR) (0, 2, 4 Gy) or cisplatin (0, 0.5, 1 and 2 μM) treatment. […] FIG. 1b contains knockdown and overexpression efficiency validation of PD-L1 in HCT116 using western blot; glyceraldehyde 3-phosphate dehydrogenase (GAPDH) was used as a loading control. […] The formation of rH2AX foci was sustained in PD-L1 depletion group compared to control group, data is represented as mean±s.e.m for each view. FIG. 1e contains an assessment of wild-type (+/+, n=16), PD-L1 heterozygous (+/−, n=24), and PD-L1 knockout (−/−, n=16) BALB/C mice that were exposed to whole body irradiation (7 Gy). Comparisons between groups were made using the Log-rank test. […] Result were based upon colony formation (±s.e.m., n=3).

CC(C)C[C@@H](C=O)NC(=O)[C@H](CC(C)C)NC(=O)[C@H](CC(C)C)NC(=O)OCc1ccccc1 [MG132] (Cbz-Leu-Leu-Leu-aldehyde) was tested, and the “recovery of NBS1 protein level in PD-L1 depleted cells” value [1] was “did not recover”.
For durvalumab, the “sensitization of cells to IR (DNA damage stimulation)” value [2] was “did not sensitize cells to DNA damage stimulation; also recorded: did not sensitize cells to IR”.
